{"source": "the CATMoS acute toxicity set (Mansouri et al. 2021)", "origin": "cited, not measured here", "note": "“And” between values parts separate entries of the source, which are not always exact repeats. Equal values may be shown once.", "data": [{"assay": "rat acute oral toxicity", "settings": "in vivo", "values": [{"molecule": "CN(C)N=Nc1ccc(C(=O)O)cc1", "LD50": "320 mg/kg"}, {"molecule": "CC(C)(C)c1ccc2nc(C(F)(F)F)[nH]c2c1", "LD50": "35 mg/kg"}, {"molecule": "CC(C)(C)c1cc(C2C(=O)c3ccccc3C2=O)cc(C(C)(C)C)c1", "LD50": "194 mg/kg"}, {"molecule": "CC1(COCCOCC2(C)CO2)CO1", "note": "(configuration not stated)", "LD50": "7460 mg/kg"}, {"molecule": "CCN(COC(C)=O)N=O", "LD50": "810 mg/kg"}, {"molecule": "CCN(CC)C(=O)Cl", "LD50": "2700 mg/kg"}, {"molecule": "CCCCCCCC[N+](CC)(CC)CCOC(=O)C(C1CCCC1)C1CCCC1", "LD50": "1200 mg/kg"}, {"molecule": "O=[N+]([O-])c1ccc(O)cc1", "LD50": "320 mg/kg"}, {"molecule": "CCOC(=O)OC(=O)OCC", "LD50": "850 mg/kg"}, {"molecule": "Oc1c(Cl)c(Cl)cc(Cl)c1Cc1c(Cl)cc(Cl)c(Cl)c1O", "LD50": "100 mg/kg"}, {"molecule": "CC(C)N1C=CC(=C2C(=O)c3ccccc3C2=O)C=C1", "LD50": "1450 mg/kg"}, {"molecule": "N#Cc1cc2[nH]c(C(F)(F)F)nc2c(Cl)c1Cl", "LD50": "3960 mg/kg"}, {"molecule": "COc1ccc(C(C)=O)cc1", "LD50": "1720 mg/kg"}, {"molecule": "CCO[Si](C)(CCCCN)OCC", "LD50": "6500 mg/kg"}, {"molecule": "CCC(C)(N)C#N", "note": "(configuration not stated)", "LD50": "74 mg/kg"}, {"molecule": "OC(CCN1CCCCC1)(c1ccccc1)C1CCCCC1", "note": "(configuration not stated)", "LD50": "1630 mg/kg"}, {"molecule": "CCCCc1c(C)nc2cccc(C)n2c1=O", "LD50": "1100 mg/kg"}, {"molecule": "CCOP(=O)(OCC)SCS(=O)(=O)CC", "LD50": "0.5 mg/kg"}, {"molecule": "C=C(C)C(=O)OCC", "LD50": "14800 mg/kg"}, {"molecule": "CO[Si](CCCN=C=O)(OC)OC", "LD50": "878 mg/kg"}, {"molecule": "O=S(=O)(c1ccccc1)c1ccc(Cl)cc1", "LD50": "1400 mg/kg"}, {"molecule": "CC(C[N+](C)(C)C)OC(N)=O", "note": "(configuration not stated)", "LD50": "1500 mg/kg"}, {"molecule": "CCn1cc(C(O)CN(C)C)c2ccccc21", "note": "(configuration not stated)", "LD50": "80 mg/kg"}, {"molecule": "Cc1onc2c(=O)n(C)nc(-c3ccccc3)c12", "LD50": "1000 mg/kg"}, {"molecule": "CCOC(=O)C(SP(=O)(OC)SC)c1ccccc1", "note": "(configuration not stated)", "LD50": "250 mg/kg"}, {"molecule": "CN(C)C(=O)Oc1cccc([N+](C)(C)C)c1", "LD50": "51 mg/kg"}, {"molecule": "CCCOC(=O)C1c2cc3c(cc2CC(C)C1C(=O)OCCC)OCO3", "note": "(configuration not stated)", "LD50": "1500 mg/kg"}, {"molecule": "N/C(CNc1ccc(Cl)cc1)=N/O", "LD50": "450 mg/kg"}, {"molecule": "COc1cc2c(cc1OC)-c1c(OC)c(OC)cc3c1C(C2)N(C)CC3", "note": "(configuration not stated)", "LD50": "545 mg/kg"}, {"molecule": "CCC1OCSC1=NOC(=O)NC", "note": "(configuration not stated)", "LD50": "24 mg/kg"}, {"molecule": "COc1cc(S(C)=O)ccc1-c1nc2ncccc2[nH]1", "note": "(configuration not stated)", "LD50": "315 mg/kg"}, {"molecule": "O=[N+]([O-])c1ccc(Cl)cc1C(F)(F)F", "LD50": "554 mg/kg"}, {"molecule": "CN(C(=O)c1ccc(N)cc1)C1CCN(C2CCCCC2)C1", "note": "(configuration not stated)", "LD50": "422 mg/kg"}, {"molecule": "Cc1cn(-c2cc(N)cc(C(F)(F)F)c2)cn1", "LD50": "50 mg/kg"}, {"molecule": "C[C@@H]1CCC[C@H](C)N1CCCC(O)(c1ccccc1)c1ccccn1", "note": "(some centres not stated)", "LD50": "251 mg/kg"}, {"molecule": "CC(CC(=O)c1ccc(-c2ccc(F)cc2F)cc1)C(=O)O", "note": "(configuration not stated)", "LD50": "134 mg/kg"}, {"molecule": "O=C(Oc1cccc(O)c1)c1ccccc1", "LD50": "800 mg/kg"}, {"molecule": "Fc1c(Cl)ccc2[nH]c(C(F)(F)F)nc12", "LD50": "5.72 mg/kg"}, {"molecule": "CN(C)CCCn1c2c(c3ccccc31)CCCCCC2", "LD50": "775 mg/kg"}, {"molecule": "Cc1ccc(S(=O)(=O)Oc2cc(S(=O)(=O)O)cc3cc(S(=O)(=O)O)cc(N)c23)cc1", "LD50": "11500 mg/kg"}, {"molecule": "O=NN(CCCl)C(=O)NCCS(=O)(=O)N1CCCCC1", "LD50": "125 mg/kg"}, {"molecule": "NNCCc1ccccc1", "LD50": "210 mg/kg"}, {"molecule": "C=C(CO)C(=O)OCC", "LD50": "620 mg/kg"}, {"molecule": "NCCNCCO", "LD50": "3000 mg/kg"}, {"molecule": "CCCCCCCCCCCC[n+]1ccc2ccccc2c1", "LD50": "230 mg/kg"}, {"molecule": "CCCCC1C(=O)NN(c2ccccc2)C1=O", "note": "(configuration not stated)", "LD50": "1750 mg/kg"}, {"molecule": "C=C1CC[C@H](O)C/C1=C/C=C1\\CCC[C@]2(C)[C@@H]([C@H](C)/C=C/[C@H](C)C(C)C)CC[C@@H]12", "LD50": "10 mg/kg"}, {"molecule": "O=c1oc(=O)c2cc3c(=O)oc(=O)c3cc12", "LD50": "2250 mg/kg"}, {"molecule": "COc1cc(OC)c(C(=O)CCCN2CCCC2)c(OC)c1", "LD50": "410 mg/kg"}, {"molecule": "COc1nccc(C(F)(F)F)c1S(=O)(=O)Cl", "LD50": "3130 mg/kg"}, {"molecule": "COc1ccc2c(c1)c(CC(=O)OCOC(=O)c1ccccc1)c(C)n2C(=O)c1ccc(Cl)cc1", "LD50": "73 mg/kg"}, {"molecule": "CCCCCOC(CBr)c1ccc(C2CCCC2)cc1", "note": "(configuration not stated)", "LD50": "250 mg/kg"}, {"molecule": "CC(C)c1ccnc2ccccc12", "LD50": "940 mg/kg"}, {"molecule": "CC(=O)OC(C)(C)Cc1ccccc1", "LD50": "3300 mg/kg"}, {"molecule": "CON=CC1=CCCN(C)C1", "LD50": "300 mg/kg"}, {"molecule": "CNC1=Nc2ccc(Cl)cc2C(c2ccccc2)=[N+]([O-])C1", "LD50": "537 mg/kg"}, {"molecule": "CCCCCCCCCCCCCCCC[n+]1ccccc1", "LD50": "200 mg/kg and 475 mg/kg"}, {"molecule": "C/C(=C\\C(C)CC(C)CC(C)C)C1CC(=O)OC1=O", "note": "(configuration not stated)", "LD50": "2550 mg/kg"}, {"molecule": "C#CC(=O)C=CC", "LD50": "71 mg/kg"}, {"molecule": "CC(=O)NNc1ccc(N)cc1", "LD50": "10 mg/kg"}, {"molecule": "Cc1ccc(S(=O)(=O)NN)cc1", "LD50": "283 mg/kg"}, {"molecule": "COC1CCC=CO1", "note": "(configuration not stated)", "LD50": "1410 mg/kg"}, {"molecule": "Cc1ccc(N=NN(C)C)cc1", "LD50": "395 mg/kg"}, {"molecule": "Cc1cc(=O)nc(SCc2ccccc2N(C)C)[nH]1", "LD50": "2400 mg/kg"}, {"molecule": "COc1cc2c3c(c4ccc(OC)c(OC)c4c2cc1OC)CN1CCCC1C3", "note": "(configuration not stated)", "LD50": "65 mg/kg"}, {"molecule": "ClCCOCCC(OCCCl)OCCCl", "LD50": "710 mg/kg"}, {"molecule": "CC(C(=O)O)c1ccc2c(c1)C(=O)Cc1ccccc1O2", "note": "(configuration not stated)", "LD50": "106 mg/kg"}, {"molecule": "Cc1cccc2sc3nncn3c12", "LD50": "250 mg/kg"}, {"molecule": "COP(=S)(OC)Oc1ccc(C#N)cc1C", "LD50": "500 mg/kg"}, {"molecule": "N[C@@H](Cc1ccc(O)c(O)c1)C(=O)O", "LD50": "1780 mg/kg"}, {"molecule": "NCC(O)c1ccc(O)cc1", "note": "(configuration not stated)", "LD50": "1240 mg/kg and 1090 mg/kg"}, {"molecule": "O=[N+]([O-])c1ccc(NS(=O)(=O)c2ccc(Cl)c(C(F)(F)F)c2)c(Cl)c1", "LD50": "132 mg/kg"}, {"molecule": "S=C(Cl)Cl", "LD50": "929 mg/kg"}, {"molecule": "N#CCCOCCOCCO", "LD50": "13400 mg/kg"}, {"molecule": "O=CN(c1ncnc2c1ncn2CC1CC1)C1CC1", "LD50": "500 mg/kg"}, {"molecule": "CN(c1ccc(Cl)cc1)S(=O)(=O)c1ccc(Cl)cc1", "LD50": "2500 mg/kg"}, {"molecule": "O=P(O)(O)OCC(Cl)(Cl)Cl", "LD50": "850 mg/kg and 1900 mg/kg"}, {"molecule": "CC1(C)[C@H](C=C(Cl)Cl)[C@H]1C(=O)OCc1c(F)c(F)c(F)c(F)c1F", "LD50": "85 mg/kg"}, {"molecule": "C=C(C#N)C(=O)OC", "LD50": "1600 mg/kg"}, {"molecule": "Cc1cc(=O)c2c(C)ccc(C)c2o1", "LD50": "2960 mg/kg"}, {"molecule": "CC1=C(C(=O)Nc2ccccc2)CCCO1", "LD50": "15000 mg/kg"}, {"molecule": "C=CCN(CC=C)c1c(C)cc(OC(=O)NC)cc1C", "LD50": "89 mg/kg"}, {"molecule": "CC(Cl)C(Cl)Cl", "note": "(configuration not stated)", "LD50": "1230 mg/kg"}, {"molecule": "COc1ccc2c(c1)c(CC(=O)O)c(C)n2C(=O)c1ccc(Cl)cc1", "LD50": "21 mg/kg"}, {"molecule": "COP(=S)(OC)SCn1ncccc1=O", "LD50": "3.5 mg/kg"}, {"molecule": "CC(=O)SCC(=O)N=c1[nH]c2ccccc2s1", "LD50": "400 mg/kg"}, {"molecule": "CCC(=O)c1ccc2c(c1)N(CCCN1CCN(C)CC1)c1ccccc1S2", "LD50": "600 mg/kg"}, {"molecule": "Cc1cc(F)ccc1NC(=O)c1cc(Cl)cc(-c2ccc(Cl)cc2)c1O", "LD50": "2510 mg/kg"}, {"molecule": "CC(C)c1ccc(NC(=O)N(C)C)cc1", "LD50": "1830 mg/kg"}, {"molecule": "FC(F)(F)C(F)(F)C(F)(F)C(F)(F)C(F)(F)C(F)(F)CCI", "LD50": "3870 mg/kg"}, {"molecule": "CCCCP(CCCC)CCCC", "LD50": "750 mg/kg"}, {"molecule": "C[C@H]1O[C@H](O[C@H]2[C@H](O)[C@@H](O)[C@@H](O)[C@H](O)[C@@H]2O)[C@@H](N)C[C@@H]1NC(=N)C(=O)O", "LD50": "22000 mg/kg and 11400 mg/kg"}, {"molecule": "CCN(CC)c1ccc(N)cc1", "LD50": "200 mg/kg"}, {"molecule": "C[C@H](CS)C(=O)N1CCC[C@H]1C(=O)O", "LD50": "4240 mg/kg"}, {"molecule": "OC(COc1ccccc1)COc1ccccc1", "LD50": "1450 mg/kg"}, {"molecule": "O=C(Cl)c1ccc(Cl)cc1Cl", "LD50": "4640 mg/kg"}, {"molecule": "C#CCOC(=O)CCCCC(=O)OCC#C", "LD50": "200 mg/kg"}, {"molecule": "O=C1CCC2CCCCC2O1", "note": "(configuration not stated)", "LD50": "3900 mg/kg"}, {"molecule": "CC(=O)NNC(=O)c1ccccn1", "LD50": "673 mg/kg"}, {"molecule": "CC(=O)c1ccc(OCC(=O)NN)cc1", "LD50": "1820 mg/kg"}, {"molecule": "OCCN(CCO)c1nc(N2CCCCC2)c2nc(N(CCO)CCO)nc(N3CCCCC3)c2n1", "LD50": "8400 mg/kg"}, {"molecule": "CCOC(=O)COc1ccc2c(C)c(CCN(CC)CC)c(=O)oc2c1", "LD50": "8000 mg/kg"}, {"molecule": "COc1cc(C=CC(=O)N2CCN(CC(=O)N3CCCC3)CC2)cc(OC)c1OC", "LD50": "1310 mg/kg"}, {"molecule": "CCCCCCCCCCCC(=O)OCCSC#N", "LD50": "500 mg/kg"}, {"molecule": "CC(=O)CCCOC(C)=O", "LD50": "6080 mg/kg"}, {"molecule": "CCNc1nc(NCC)nc(SC)n1", "LD50": "750 mg/kg"}, {"molecule": "CCCCCCCC(=O)OCC", "LD50": "26000 mg/kg"}]}]}
